Assay results as given in the supplement of paper PMC10307832.

Assays:
Test in all cases: relative viability (nuclei count vs DMSO), 5 days (fraction); higher = more cells survive
AGI-6780 + Crizotinib = compound: O=C(Nc1cccc(C(F)(F)F)c1)Nc1cc(S(=O)(=O)NC2CC2)ccc1-c1ccsc1 [AGI-6780] + C[C@@H](Oc1cc(-c2cnn(C3CCNCC3)c2)cnc1N)c1c(Cl)ccc(F)c1Cl [Crizotinib] (partner 1 µM)
Method in brief: (§1)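 Lung cancer cell lines were pin-tool dosed in 1536-well plates on the day after seeding, with either a lone drug or a fixed anchor-drug dose plus five library-drug doses (not always all listed) in √10 steps. Nuclei were counted on 4× images after 5 days. Relative viability is the ratio of treated-well to vehicle-well nuclei counts, with each value a median of duplicate plates.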

AGI-6780 + Vorinostat = compound: O=C(Nc1cccc(C(F)(F)F)c1)Nc1cc(S(=O)(=O)NC2CC2)ccc1-c1ccsc1 [AGI-6780] + O=C(CCCCCCC(=O)Nc1ccccc1)NO [Vorinostat] (partner 1 µM)
Method in brief: as §1

AGI-6780 + AZD7762 = compound: O=C(Nc1cccc(C(F)(F)F)c1)Nc1cc(S(=O)(=O)NC2CC2)ccc1-c1ccsc1 [AGI-6780] + NC(=O)Nc1cc(-c2cccc(F)c2)sc1C(=O)N[C@H]1CCCNC1 [AZD7762] (partner 0.2 µM)
Method in brief: as §1

AGI-6780 + Palbociclib = compound: O=C(Nc1cccc(C(F)(F)F)c1)Nc1cc(S(=O)(=O)NC2CC2)ccc1-c1ccsc1 [AGI-6780] + CC(=O)c1c(C)c2cnc(Nc3ccc(N4CCNCC4)cn3)nc2n(C2CCCC2)c1=O [Palbociclib] (partner 0.5 µM)
Method in brief: as §1

| Cell Line | relative viability (AGI-6780 + Crizotinib; first compound 0.08 µM) | relative viability (AGI-6780 + Crizotinib; first compound 0.253 µM) | relative viability (AGI-6780 + Crizotinib; first compound 0.8 µM) | relative viability (AGI-6780 + Crizotinib; first compound 2.53 µM) | relative viability (AGI-6780 + Crizotinib; first compound 8 µM) | relative viability (AGI-6780 + Vorinostat; first compound 0.08 µM) | relative viability (AGI-6780 + Vorinostat; first compound 0.253 µM) | relative viability (AGI-6780 + Vorinostat; first compound 0.8 µM) | relative viability (AGI-6780 + Vorinostat; first compound 2.53 µM) | relative viability (AGI-6780 + Vorinostat; first compound 8 µM) | relative viability (AGI-6780 + AZD7762; first compound 0.08 µM) | relative viability (AGI-6780 + AZD7762; first compound 0.253 µM) | relative viability (AGI-6780 + AZD7762; first compound 0.8 µM) | relative viability (AGI-6780 + AZD7762; first compound 2.53 µM) | relative viability (AGI-6780 + AZD7762; first compound 8 µM) | relative viability (AGI-6780 + Palbociclib; first compound 0.08 µM) | relative viability (AGI-6780 + Palbociclib; first compound 0.253 µM) | relative viability (AGI-6780 + Palbociclib; first compound 0.8 µM) | relative viability (AGI-6780 + Palbociclib; first compound 2.53 µM) | relative viability (AGI-6780 + Palbociclib; first compound 8 µM) |
| --- | --- | --- | --- | --- | --- | --- | --- | --- | --- | --- | --- | --- | --- | --- | --- | --- | --- | --- | --- | --- |
| LC-2-ad | 0.579 | 0.491 | 0.467 | 0.412 | 0.508 | 0.754 | 0.72 | 0.776 | 0.661 | 0.726 | 0.895 | 0.885 | 0.921 | 0.877 | 0.859 | 0.536 | 0.525 | 0.524 | 0.526 | 0.463 |
| LCLC-97TM1 | 0.417 | 0.48 | 0.668 | – | 0.344 | 0.739 | 0.886 | 0.785 | 0.572 | 0.598 | 0.276 | 0.279 | 0.445 | 0.31 | 0.303 | 0.197 | 0.223 | 0.235 | 0.212 | 0.207 |
| LCLC-103H | 1.08 | 1.12 | 1 | 1.03 | 1.01 | 0.746 | 0.861 | 0.759 | 0.576 | 0.781 | 0.716 | 0.812 | 0.712 | 0.647 | 0.792 | 0.487 | 0.476 | 0.526 | 0.445 | 0.463 |
| LK-2 | 0.262 | 0.209 | 0.271 | – | 0.211 | 0.334 | 0.286 | 0.347 | 0.259 | 0.567 | 0.374 | 0.412 | 0.63 | – | 0.501 | 0.671 | 0.643 | 0.823 | – | 0.679 |
| LOU-NH91 | 0.753 | 0.764 | 0.712 | 0.705 | 0.715 | 0.954 | 0.92 | 0.953 | 0.926 | 0.913 | 0.759 | 0.802 | 0.79 | 0.67 | 0.812 | 0.529 | 0.528 | 0.521 | 0.515 | 0.55 |
| LU99A | 0.606 | 0.484 | 0.627 | 0.473 | 0.669 | 0.568 | 0.461 | 0.502 | 0.335 | 0.466 | 0.404 | 0.422 | 0.45 | 0.345 | 0.421 | 0.417 | 0.435 | 0.494 | 0.334 | 0.452 |
| LXF-289 | 0.84 | 0.798 | 0.795 | 0.83 | 0.771 | 0.858 | 0.788 | 0.736 | 0.843 | 0.778 | 1.16 | 1.17 | 1.11 | 1.37 | 0.991 | 0.606 | 0.65 | 0.586 | 0.586 | 0.6 |
| NCI-H23 | 0.56 | 0.633 | 0.629 | 0.539 | 0.544 | 0.61 | 0.74 | 0.735 | 0.614 | 0.508 | 0.259 | 0.24 | 0.23 | 0.294 | 0.23 | 0.437 | 0.528 | 0.457 | 0.394 | 0.541 |
| NCI-H322M | 0.785 | 0.861 | 1.02 | 0.986 | 0.858 | – | 0.956 | 1.03 | 0.855 | 0.855 | – | 0.767 | 0.551 | 0.555 | 0.653 | – | 0.516 | 0.446 | 0.434 | 0.499 |
| NCI-H358 | 0.76 | 0.566 | 0.573 | 0.528 | 0.471 | 1.07 | 0.616 | 0.709 | 0.602 | 0.675 | 0.678 | 0.504 | 0.648 | 0.501 | 0.475 | 0.129 | 0.131 | 0.119 | 0.138 | 0.154 |
| NCI-H441 | 0.766 | 0.988 | 1.05 | 0.513 | 0.887 | 0.748 | 0.711 | 0.853 | 0.547 | 0.676 | 1.33 | 1.35 | 1.43 | 1.2 | 1.39 | 0.248 | 0.259 | 0.232 | 0.195 | 0.263 |
| NCI-H460 | 0.912 | 0.963 | 1.19 | 0.759 | 1.06 | 0.787 | 0.678 | 0.779 | 0.658 | 0.659 | 0.444 | 0.671 | 0.684 | 0.726 | 0.564 | 0.145 | 0.211 | 0.144 | 0.136 | 0.15 |
| NCI-H647 | 1.1 | 1.13 | 1.38 | 0.96 | 1.15 | 0.734 | 0.628 | 0.942 | 0.572 | 0.752 | 0.425 | 0.484 | 0.827 | 0.401 | 0.589 | 0.416 | 0.36 | 0.48 | 0.332 | 0.422 |
| NCI-H650 | 0.833 | 0.673 | 0.737 | 0.601 | 0.641 | 0.465 | 0.466 | 0.393 | 0.389 | 0.465 | 0.81 | 1.05 | 1.24 | 0.92 | 1.07 | 0.34 | 0.3 | 0.258 | 0.333 | 0.334 |
| NCI-H727 | 0.887 | 0.702 | 0.842 | 0.844 | 0.843 | 1.16 | 1.01 | 1.15 | 1.13 | 1.16 | 0.45 | 0.536 | 0.65 | 0.589 | 0.749 | 0.669 | 0.671 | 0.605 | 0.56 | 0.645 |
| NCI-H838 | 0.979 | 0.795 | 0.973 | 0.812 | 0.844 | 0.801 | 0.687 | 0.738 | 0.647 | 0.672 | 0.988 | 0.903 | 0.919 | 0.932 | 0.909 | 0.252 | 0.267 | 0.221 | 0.218 | 0.224 |
